# Reference: PubChem BioAssay AID1963827 (Molecular Pharmacology Branch, DTP, NCI, 2024)
# pIC50: −log10 of the molar value.
# System: 994946-033-R-J1-PDC complex spheroid viability
# Assay: Anticancer human tumor 994946-033-R-J1-PDC patient-derived melanoma cell line growth inhibition [POLQ]
# Details: for pIC50: curve of first compound; for viability, T/C: stronger effect = lower value
# Outline: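 PDC + HUVEC + MSC complex spheroids; POLQ inhibitors ± partner drugs; top conc. at/near clinical Cmax, else 10 microM (SN-38 1 microM), half-log dilutions; 37 degrees C, 5% CO2.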
# [1] = second compound 0.0316 µM, first compound 0.0316 µM
# [2] = second compound 0.0316 µM, first compound 0.1 µM
# [3] = second compound 0.0316 µM, first compound 0.316 µM
# [4] = second compound 0.0316 µM, first compound 1 µM
# [5] = second compound 0.0316 µM, first compound 3.16 µM
# [6] = second compound 0.0316 µM, first compound 10 µM
# [7] = second compound 0.1 µM, first compound 0.0316 µM
# [8] = second compound 0.1 µM, first compound 0.1 µM
# [9] = second compound 0.1 µM, first compound 0.316 µM
# [10] = second compound 0.1 µM, first compound 1 µM
# [11] = second compound 0.1 µM, first compound 3.16 µM
# [12] = second compound 0.1 µM, first compound 10 µM
# [13] = second compound 0.316 µM, first compound 0.0316 µM
# [14] = second compound 0.316 µM, first compound 0.1 µM
# [15] = second compound 0.316 µM, first compound 0.316 µM
# [16] = second compound 0.316 µM, first compound 1 µM
# [17] = second compound 0.316 µM, first compound 3.16 µM
# [18] = second compound 0.316 µM, first compound 10 µM
# [19] = second compound 1 µM, first compound 0.0316 µM
# [20] = second compound 1 µM, first compound 0.1 µM
# [21] = second compound 1 µM, first compound 0.316 µM
# [22] = second compound 1 µM, first compound 1 µM
# [23] = second compound 1 µM, first compound 3.16 µM
# [24] = second compound 1 µM, first compound 10 µM
# [25] = second compound 3.16 µM, first compound 0.0316 µM
# [26] = second compound 3.16 µM, first compound 0.1 µM
# [27] = second compound 3.16 µM, first compound 0.316 µM
# [28] = second compound 3.16 µM, first compound 1 µM
# [29] = second compound 3.16 µM, first compound 3.16 µM
# [30] = second compound 3.16 µM, first compound 10 µM
# [31] = second compound 10 µM, first compound 0.0316 µM
# [32] = second compound 10 µM, first compound 0.1 µM
# [33] = second compound 10 µM, first compound 0.316 µM
# [34] = second compound 10 µM, first compound 1 µM
# [35] = second compound 10 µM, first compound 3.16 µM
# [36] = second compound 10 µM, first compound 10 µM
# 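Also: spheroids exposed to drugs for 7 days.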
# 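For viability, T/C in this document: 100% = DMSO vehicle treated spheroids.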
compound,measurement,setting,value
CC(C)n1c(=O)n(C)c2cnc3cc(F)c(-c4ccc(OCCCN5CCCCC5)nc4)cc3c21 + COC1C(OC(N)=O)C(O)C(Oc2ccc3c(O)c(NC(=O)c4ccc(O)c(CC=C(C)C)c4)c(=O)oc3c2C)OC1(C)C,pIC50,second compound 0.0316 µM,5.34
same,pIC50,second compound 0.1 µM,5.30
same,pIC50,second compound 0.316 µM,5.07
same,pIC50,second compound 1 µM,5.28
same,pIC50,second compound 3.16 µM,< 5.00
same,pIC50,second compound 10 µM,5.20
same,"viability, T/C",[1],81.5%
same,"viability, T/C",[2],65.5%
same,"viability, T/C",[3],81.1%
same,"viability, T/C",[4],59.1%
same,"viability, T/C",[5],60%
same,"viability, T/C",[6],36.8%
same,"viability, T/C",[7],73.7%
same,"viability, T/C",[8],100%
same,"viability, T/C",[9],78.3%
same,"viability, T/C",[10],69.8%
same,"viability, T/C",[11],65.2%
same,"viability, T/C",[12],31.6%
same,"viability, T/C",[13],74.5%
same,"viability, T/C",[14],76.7%
same,"viability, T/C",[15],68.2%
same,"viability, T/C",[16],68.3%
same,"viability, T/C",[17],79.8%
same,"viability, T/C",[18],46.5%
same,"viability, T/C",[19],86.7%
same,"viability, T/C",[20],86.5%
same,"viability, T/C",[21],87%
same,"viability, T/C",[22],102%
same,"viability, T/C",[23],64.5%
same,"viability, T/C",[24],31.6%
same,"viability, T/C",[25],81.8%
same,"viability, T/C",[26],68.5%
same,"viability, T/C",[27],92.9%
same,"viability, T/C",[28],93.8%
same,"viability, T/C",[29],66.1%
same,"viability, T/C",[30],50.6%
same,"viability, T/C",[31],76.1%
same,"viability, T/C",[32],65.9%
same,"viability, T/C",[33],66.1%
same,"viability, T/C",[34],82%
same,"viability, T/C",[35],62.1%
same,"viability, T/C",[36],40.1%
CC1COCCN1c1cc(C2(S(C)(=N)=O)CC2)nc(-c2ccnc3[nH]ccc23)n1 (centres undefined) + COC1C(OC(N)=O)C(O)C(Oc2ccc3c(O)c(NC(=O)c4ccc(O)c(CC=C(C)C)c4)c(=O)oc3c2C)OC1(C)C,pIC50,second compound 0.0316 µM,5.38
same,pIC50,second compound 0.1 µM,5.86
same,pIC50,second compound 0.316 µM,5.39
same,pIC50,second compound 1 µM,5.09
same,pIC50,second compound 3.16 µM,< 5.00
same,pIC50,second compound 10 µM,5.50
same,"viability, T/C",[1],134%
same,"viability, T/C",[2],95.5%
same,"viability, T/C",[3],99.4%
same,"viability, T/C",[4],45.6%
same,"viability, T/C",[5],61.9%
same,"viability, T/C",[6],41.1%
same,"viability, T/C",[7],113%
same,"viability, T/C",[8],101%
same,"viability, T/C",[9],68.2%
same,"viability, T/C",[10],65.3%
same,"viability, T/C",[11],29.2%
same,"viability, T/C",[12],36.1%
same,"viability, T/C",[13],78.1%
same,"viability, T/C",[14],116%
same,"viability, T/C",[15],92.4%
same,"viability, T/C",[16],63.9%
same,"viability, T/C",[17],61.5%
same,"viability, T/C",[18],34.1%
same,"viability, T/C",[19],138%
same,"viability, T/C",[20],105%
same,"viability, T/C",[21],80.8%
same,"viability, T/C",[22],68.9%
same,"viability, T/C",[23],52.9%
same,"viability, T/C",[24],49.6%
same,"viability, T/C",[25],101%
same,"viability, T/C",[26],90.5%
same,"viability, T/C",[27],80.5%
same,"viability, T/C",[28],75%
same,"viability, T/C",[29],54.6%
same,"viability, T/C",[30],57.9%
same,"viability, T/C",[31],103%
same,"viability, T/C",[32],85.4%
same,"viability, T/C",[33],99%
same,"viability, T/C",[34],102%
same,"viability, T/C",[35],50%
same,"viability, T/C",[36],37%
